# Tested on: any cardiac event, including ischemic stroke, or death
# Assay: Bayesian hierarchical (Cox proportional hazards, Models 1 and 2) analysis of five secondary prevention studies (CARE, LIPID, PLAC I, PLAC II, REGRESS) for synergy between pravastatin and aspirin
# Type: in vivo, human
# Conditions: for posterior mean of the coefficient γT: Model 1, logarithmic scale, relative to placebo (γplacebo=0)
# Procedure: In this study 40 mg pravastatin and 81 mg aspirin and higher were employed.
# The primary endpoint was (i) any cardiac event, including ischemic stroke, or death. Secondary endpoints were individual components of the primary endpoint: (ii) any cardiac event, excluding stroke, (iii) any myocardial infarction, (iv) ischemic stroke, and (v) death. Analyses of these secondary endpoints as opposed to the primary endpoint are subject to greater uncertainty because the numbers of events are smaller. Therefore, conclusions for the secondary endpoints are likely to be less compelling.
# The five studies available for addressing the synergy between pravastatin and aspirin for secondary prevention are listed and described in Table 1. Patients in all five studies were randomized to pravastatin vs placebo. All patients in all five studies are included in the primary analysis.
# These may be due to random variability or to differences in patient populations. To take these differences into account, the role of patient characteristics was modeled, namely, the following covariates were considered: age, gender, smoking status, existence of coronary artery disease, and baseline values of LDL and HDL cholesterols, triglycerides, and diastolic and systolic blood pressures. In addition, the studies were conducted under different circumstances and by different investigators and even in different countries. Therefore, there may be additional study-specific differences that cannot be explained by differences in measured patient covariates. To allow for the possibility that treatment effects depend on study even after accounting for patient characteristics, Bayesian hierarchical modeling was used in which the study is one level of experimental unit and patient-within-study is a second level.
# A brief introduction to Bayesian hierarchical modeling and a description of standard Bayesian hierarchical Cox proportional hazards model (Model 1) are set out below. An extension of the standard model that allows for treatment-specific time-varying hazards (Model 2) is also described. In addition, the sensitivity of the conclusions to the prior distribution of the parameter that regulates the extent of pooling of the various studies is addressed.
# Model 1: Bayesian Hierarchical Analysis Using Cox Proportional Hazards Model
# The Cox proportional hazards model takes hazard H to be of the form
# where Z is the set of patient-specific covariates (listed above), β is the vector of regression coefficients and λ0(t) is the baseline hazard function. Treatment and study are considered separately from covariates Z, as follows: […]
# Assessing the probability of synergy is straightforward in Model 1 when using Markov chain Monte Carlo (MCMC) methods. […] During each iteration of MCMC, this synergy condition is assessed. […]
smiles,measurement,setting,value
"CC(=O)Oc1ccccc1C(=O)O [aspirin, acetylsalicylic acid]",posterior mean of the coefficient γT,primary endpoint (All events),−0.0022
same,performance in comparison with placebo alone,"primary endpoint (All events), Models 1 and 2",essentially the same
same,estimated event rate (hazard) compared among treatment arms,"stroke, Model 2, year 1",lowest estimated event rate
CC[C@H](C)C(=O)O[C@H]1C[C@H](O)C=C2C=C[C@H](C)[C@H](CC[C@@H](O)C[C@@H](O)CC(=O)O)[C@H]21 [pravastatin],posterior mean of the coefficient γT,primary endpoint (All events),−0.0985

# From US20030013688A1, “Synergistic combination of pravastatin and aspirin and method” (priority 2001, published 2003)
